In this experiment the test system is Pulicinae. Nature of the experiment: In vitro systemic flea efficacy using membrane feeding assay. The experiment is classed as functional.
As for `C=C(C)[C@H]1C(=O)c2c3c(cc4c5c(n1c24)[C@@]1(C)C(CC[C@H]2[C@](C)(/C=C/C=C(\CC)C(=O)N(C)C)[C@@H](O)CC[C@@]21C)C5)C1=CC(C)(C)OC(C)(C)C1[C@@H]3O` (stereo not given in full), the Activity amounted to 1 p.p.m.

`C=C(C)[C@H]1C(=O)c2c3c(cc4c5c(n1c24)[C@@]1(C)C(CC[C@H]2[C@](C)(/C=C/C=C/C(=O)OCC)[C@@H](O)CC[C@@]21C)C5)C1=CC(C)(C)OC(C)(C)C1[C@@H]3O` (stereo not given in full) gave an Activity of 1 p.p.m.

The compound `C=CC/C(=C\C=C\[C@]1(C)[C@@H](O)CC[C@@]2(C)[C@H]1CCC1Cc3c(n4c5c(c6c(cc35)C3=CC(C)(C)OC(C)(C)C3[C@@H]6O)C(=O)[C@@H]4C(=C)C)[C@@]12C)C(=O)NCC` (stereo not given in full) gave an Activity of 1 p.p.m.

Regarding `C=C(C)[C@H]1C(=O)c2c3c(cc4c5c(n1c24)[C@@]1(C)C(CC[C@H]2[C@](C)(/C=C/C=C(\OC)C(=O)NC(C)(C)C)[C@@H](O)CC[C@@]21C)C5)C1=CC(C)(C)OC(C)(C)C1C3` (stereo not given in full), the Activity was over 10 p.p.m.

`C=C(C)[C@H]1C(=O)c2c3c(cc4c5c(n1c24)[C@@]1(C)C(CC[C@H]2[C@](C)(/C=C/C(C)=C/C(=O)NC(C)(C)C)[C@@H](O)CC[C@@]21C)C5)C1=CC(C)(C)OC(C)(C)C1[C@@H]3O` (stereo not given in full): the Activity was determined as 10 p.p.m.

`C=C(C)[C@H]1C(=O)c2c3c(cc4c5c(n1c24)[C@@]1(C)C(CC[C@H]2[C@](C)(/C=C/C=C(\C(C)=O)C(=O)N(C)C)[C@@H](O)CC[C@@]21C)C5)C1=CC(C)(C)OC(C)(C)C1[C@@H]3O` (stereo not given in full) returned an Activity of 1 p.p.m.

Compound `C=C(C)[C@H]1C(=O)c2c3c(cc4c5c(n1c24)[C@@]1(C)C(CC[C@H]2[C@](C)(/C=C/C=C/C(N)=O)[C@@H](O)CC[C@@]21C)C5)C1=CC(C)(C)OC(C)(C)C1[C@@H]3O` (stereo not given in full) registered an Activity of 1 p.p.m.

For `C=CC/C(=C\C=C\[C@]1(C)[C@@H](O)CC[C@@]2(C)[C@H]1CCC1Cc3c(n4c5c(c6c(cc35)C3=CC(C)(C)OC(C)(C)C3[C@@H]6O)C(=O)[C@@H]4C(=C)C)[C@@]12C)C(=O)N(C)C` (stereo not given in full), the Activity amounted to 1 p.p.m.

`C=C/C=C/[C@]1(C)[C@@H](O)CC[C@@]2(C)[C@H]1CCC1Cc3c(n4c5c(c6c(cc35)C3=CC(C)(C)OC(C)(C)C3[C@@H]6O)C(=O)[C@@H]4C(=C)C)[C@@]12C` (stereo not given in full) returned an Activity of 10 p.p.m.

In turn, `C=C(C)[C@H]1C(=O)c2c3c(cc4c5c(n1c24)[C@@]1(C)C(CC[C@H]2[C@](C)(/C=C/C=C/C(=O)NC(C)(C)C)[C@@H](O)CC[C@@]21C)C5)C1=CC(C)(C)OC(C)(C)C1[C@@H]3O` (stereo not given in full) showed an Activity of 1 p.p.m.
